Source: patent US5393780A, “4-fluorobiphenyl derivatives” (priority 1993, dated 1995)

Assays:
[1] = molecular target: T1, HMG-CoA Reductase (Rattus norvegicus, UniProt P51639); experiment: biochemical; settings: read-out: HMG-CoA Reductase Inhibition %
T1 sequence (P51639 1-887): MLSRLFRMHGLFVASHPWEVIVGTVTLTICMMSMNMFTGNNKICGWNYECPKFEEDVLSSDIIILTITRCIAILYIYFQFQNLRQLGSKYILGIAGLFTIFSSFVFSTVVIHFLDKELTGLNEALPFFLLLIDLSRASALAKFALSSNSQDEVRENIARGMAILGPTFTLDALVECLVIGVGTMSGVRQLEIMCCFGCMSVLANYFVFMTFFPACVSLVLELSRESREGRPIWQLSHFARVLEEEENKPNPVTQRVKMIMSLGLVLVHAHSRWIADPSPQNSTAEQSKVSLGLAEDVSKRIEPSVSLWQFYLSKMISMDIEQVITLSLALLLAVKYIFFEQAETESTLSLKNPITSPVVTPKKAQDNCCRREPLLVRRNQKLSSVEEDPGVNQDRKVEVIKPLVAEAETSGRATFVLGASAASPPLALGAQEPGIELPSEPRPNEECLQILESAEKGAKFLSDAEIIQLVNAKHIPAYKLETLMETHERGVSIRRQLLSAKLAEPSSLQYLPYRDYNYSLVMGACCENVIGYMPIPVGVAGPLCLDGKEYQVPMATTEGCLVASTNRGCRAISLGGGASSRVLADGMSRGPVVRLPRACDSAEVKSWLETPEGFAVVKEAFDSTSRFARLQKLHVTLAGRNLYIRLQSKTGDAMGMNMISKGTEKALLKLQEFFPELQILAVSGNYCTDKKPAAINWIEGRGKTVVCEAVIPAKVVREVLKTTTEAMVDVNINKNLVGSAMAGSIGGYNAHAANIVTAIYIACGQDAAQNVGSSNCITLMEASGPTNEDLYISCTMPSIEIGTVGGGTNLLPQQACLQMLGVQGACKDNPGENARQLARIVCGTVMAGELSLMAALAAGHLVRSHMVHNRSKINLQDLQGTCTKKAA
Procedure: Determination of Inhibitory Activity on HMG-CoA Reductase
The inhibitory effect on HMG-CoA Reductase of each of representative examples of the 4-fluorobiphenyl derivatives prepared in the above-discussed examples was determined in accordance with the method described in Journal of Biological Chemistry (J. Biol. Chem.) Vol. 234, page 2835 (1959).

[2] = Determination of Partition Coefficient (n-octanol/phosphoric acid buffer pH 7.0); assay type: physicochemical; settings: P=Co/Cw; for logD: n-octanol/phosphate buffer
Procedure: Determination of Partition Coefficient
The partition coefficient of each of representative compounds synthesized in the above-mentioned Examples was determined in accordance with the method by Hansh et al. (J. Am. Chem. Soc., 86, 5175 (1964)).
More specifically, the compound to be tested was dissolved in either an n-octanol solution which was saturated with a phosphoric acid buffer solution of pH 7.0 (Solution A) or a phosphoric acid buffer solution of pH 7.0 saturated with n-octanol (Solution B).
5 ml of the solution (Solution A or Solution B) in which the compound was dissolved and 5 ml of the solution (Solution B or Solution A) in which the compound was not dissolved were placed in a screw vial tube, and shaken for 30 minutes. This mixed solution was centrifuged for 15 minutes, and was then allowed to stand. The mixed solution was separated into two phases, that is, a water phase and a n-octanol phase.
The concentration of the compound in the water phase was determined by the UV method, and the concentration of the compound in the n-octanol phase was determined by deducting the concentration of the compound in the water phase from the concentration of the compound in the initially mixed solution (Solution A and Solution B).
The partition coefficient of the compound was calculated in accordance with the following formula:
Partition coefficient (P)=Co/Cw
wherein Co is the concentration of the compound in the n-octanol phase, and Cw is the concentration of the compound in the water phase.

[3] = test system: biosynthesis of sterol; experiment: Determination of Inhibition of Sterol Synthesis (14C-acetic acid, liver, after oral dosing); assay type: in vivo, SD rat; settings: 14C-acetic acid five hours later
Procedure: Determination of Inhibition of Sterol Synthesis
Representative compounds (0.3 mg/5 ml/kg) suspended in a 5% arabic gum solution were orally given to SD rate weighing 150 to 200 g.
Five hours later, ^14 C-acetic acid (100 μCi/kg) was intraperitoneally injected, and furthermore one hour later, liver was removed to determine the inhibitory activity of each of the compounds on the biosynthesis of sterol.

[4] = test system: cells of smooth muscles; settings: advantage over pravastatin; cited from earlier work
[5] = test system: cholesterol in the blood; settings: cited from earlier work
[6] = referred to JAMA (Japanese Edition) October 1991 Supplement, pages 42-47; cited from earlier work
[7] = cited from earlier work
[8] = test system: liver cells and non-liver cells; settings: cited from earlier work
[9] = molecular target: T2, HMG-CoA Reductase (Homo sapiens, UniProt P04035); settings: cited from earlier work
T2 sequence (P04035 1-888): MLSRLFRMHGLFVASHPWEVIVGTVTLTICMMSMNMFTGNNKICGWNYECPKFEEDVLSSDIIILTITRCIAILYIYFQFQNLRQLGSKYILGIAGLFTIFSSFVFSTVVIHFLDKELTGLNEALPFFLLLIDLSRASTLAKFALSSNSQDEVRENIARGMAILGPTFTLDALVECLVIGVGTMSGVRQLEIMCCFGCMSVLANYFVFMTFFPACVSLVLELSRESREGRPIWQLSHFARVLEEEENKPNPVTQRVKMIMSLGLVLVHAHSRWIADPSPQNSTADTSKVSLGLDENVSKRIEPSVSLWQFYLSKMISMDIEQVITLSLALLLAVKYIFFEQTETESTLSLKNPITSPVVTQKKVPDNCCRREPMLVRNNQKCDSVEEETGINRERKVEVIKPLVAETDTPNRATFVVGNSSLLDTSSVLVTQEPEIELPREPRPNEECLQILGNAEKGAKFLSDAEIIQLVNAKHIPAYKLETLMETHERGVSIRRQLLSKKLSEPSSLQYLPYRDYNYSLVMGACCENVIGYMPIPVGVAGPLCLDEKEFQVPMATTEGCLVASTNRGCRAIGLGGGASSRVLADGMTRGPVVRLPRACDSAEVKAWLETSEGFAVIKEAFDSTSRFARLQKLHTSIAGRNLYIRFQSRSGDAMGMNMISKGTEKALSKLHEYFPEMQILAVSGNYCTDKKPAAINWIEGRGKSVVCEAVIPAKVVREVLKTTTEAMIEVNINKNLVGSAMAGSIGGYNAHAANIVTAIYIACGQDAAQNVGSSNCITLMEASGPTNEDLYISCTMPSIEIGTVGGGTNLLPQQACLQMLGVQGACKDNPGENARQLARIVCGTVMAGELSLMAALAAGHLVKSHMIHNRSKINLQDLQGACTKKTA

[10] = literature reports; cited from earlier work

Compound	inhibition at 0.1 µM [1]	logD [2]	Sterol Synthesis Inhibition % ([3]; Administered amount 0.3 mg/kg)	cholesterol lowering effect [5]	further results
CC(C)c1cc(OCc2cccnc2)cc(-c2ccc(F)cc2)c1/C=C/C(O)CC(O)CC(=O)O (centres unmarked)	95%	1.41	–	–	–
COCCOc1cc(-c2ccc(F)cc2)c(/C=C/C(O)CC(O)CC(=O)[O-])c(C(C)C)c1.[Na+] (centres unmarked)	96%	0.716	30%	–	–
CCC(C)(C)C(=O)O[C@H]1C[C@@H](C)C=C2C=C[C@H](C)[C@H](CC[C@@H]3C[C@@H](O)CC(=O)O3)[C@H]21 [Simvastatin]	–	–	1%	strong cholesterol lowering effect	Sterol Synthesis Inhibition % ([3]; Administered amount 1 mg/kg): 41%; cytostatic function with respect to the cells of smooth muscles [4]: antiarteriosclerosis effect because of its cytostatic function with respect to the cells of smooth muscles; Partition Coefficient ([2]; ring-opened type sodium salt): 74; Partition Coefficient (literature) [6]: 75.8
COCCOCCOc1cc(-c2ccc(F)cc2)c(/C=C/C(O)CC(O)CC(=O)O)c(C(C)C)c1 (centres unmarked)	–	0.519	–	–	–
CC(C)c1cc(OCCO)cc(-c2ccc(F)cc2)c1/C=C/C(O)CC(O)CC(=O)[O-].[Na+] (centres unmarked)	98%	0.114	40%	–	–
CC(C)c1cc(OCc2ccncc2)cc(-c2ccc(F)cc2)c1/C=C/C(O)CC(O)CC(=O)O (centres unmarked)	96%	1.48	–	–	–
CC(C)c1cc(OCc2ccccn2)cc(-c2ccc(F)cc2)c1/C=C/C(O)CC(O)CC(=O)O (centres unmarked)	95%	1.43	–	–	–
CC[C@H](C)C(=O)O[C@H]1C[C@H](O)C=C2C=C[C@H](C)[C@H](CC[C@@H](O)C[C@@H](O)CC(=O)O)[C@H]21 [Pravastatin]	88%	-0.444	–	–	water-solubility / lipid-solubility [7]: highly water-soluble; Sterol Synthesis Inhibition % ([3]; Administered amount 1 mg/kg): 16%; Partition Coefficient [2]: 0.36; incorporation into liver / non-liver cells [8]: not incorporated into histoblasts other than those of liver; Partition Coefficient (literature) [6]: 0.34
CC[C@H](C)C(=O)O[C@H]1CCC=C2C=C[C@H](C)[C@H](CC[C@@H]3C[C@@H](O)CC(=O)O3)[C@H]21 [ML-236B, Mevastatin]	–	–	–	capable of lowering the concentration of cholesterol in the blood	inhibitory effect on HMG-CoA reductase [9]: competitive inhibitory effect on HMG-CoA reductase
CC[C@H](C)C(=O)O[C@H]1C[C@@H](C)C=C2C=C[C@H](C)[C@H](CC[C@@H]3C[C@@H](O)CC(=O)O3)[C@H]21 [lovastatin]	–	–	–	strong cholesterol lowering effect	water-solubility / lipid-solubility [7]: highly lipid-soluble; side effects [10]: myositis and sleep disorder; incorporation into liver / non-liver cells [8]: transferred into both liver cells and non-liver cells
